13 compounds from US20020052323A1, “Quinoline-(C=O)-(multiple amino acids)-leaving group compounds for pharmaceutical compositions and reagents” (priority 2000, published 2002) can be followed below.

Several values for one entry are separate records, joined by “and”; a condition that tells them apart may be missing. Equal entries are not always repeated. Where two headings read alike, the source gives them in different places. Where only a bound is given, the exact number is not on record here.

The subject of series [1] is WEHI 231 cells. Put plainly: TUNEL analysis of Actinomycin D induced apoptosis, flow cytometry. Type of series: cell-based, murine. Set-up: key to rank of result in TUNEL analysis: ***: Best result; **: Second best result; *: Third best result. The procedure: Flow Cytometry measures the percent of the cell population undergoing apoptosis. The effect of the inhibitors is identified as a reduction in the percent of the cell population undergoing apoptosis. Cell Type: WEHI 231 cells, murine immature B cells (suspension) Plate cells at 2×10^5/ml in 10 ml of media (Total 2×10^6 cells) Preincubate caspase inhibitors (Formula I) one hour before inducing apoptosis. […] Actinomycin D (ActD) stock is 1 μg/μl add 10 μl/10 ml)-Treat 4 h Process for Tunel Analysis. (See Table 2 below). […] Cell Processing for Tunel Analysis and Flow Cytometry. Centrifuge cells at 300× g for 5 min and aspirate supernatant. Resuspend cells in 5.0 ml of cold 1× PBS, Spin at 300× g, 5 min. Aspirate supernatant. […] Incubate for 15 min. on ice. […] Aspirate supernatant. […] Aspirate supernatant. […] Aspirate supernatant. Resuspend the cell in 300 μl of cold IX PBS, Transfer to a 1.5 ml tube. […] Store at −20° C. at least 18 hr prior to Tunel Labeling Fixed cells are stable for at least 30 days. Process fixed cells for Tunel using the Apo-BRDU kit from Pharmingen (San Diego, Calif.) following the manufacturer's instructions and analyze by flow cytometry.
In general terms: In flow cytometry, cells or beads pass a laser one at a time.

Series [2] relates to WEHI 231 cells. Kind of series: TUNEL analysis, inhibitor alone (toxicity control). Type of series: cell-based, murine. The note with it: no ActD. The procedure: Flow Cytometry measures the percent of the cell population undergoing apoptosis. The effect of the inhibitors is identified as a reduction in the percent of the cell population undergoing apoptosis. Cell Type: WEHI 231 cells, murine immature B cells (suspension) Plate cells at 2×10^5/ml in 10 ml of media (Total 2×10^6 cells) Preincubate caspase inhibitors (Formula I) one hour before inducing apoptosis. […] [table] Process fixed cells for Tunel using the Apo-BRDU kit from Pharmingen (San Diego, Calif.) following the manufacturer's instructions and analyze by flow cytometry.

Series [3] deals with T1, caspase 1 (Homo sapiens, UniProt P29466).
T1 sequence (P29466 120-297 limits assumed): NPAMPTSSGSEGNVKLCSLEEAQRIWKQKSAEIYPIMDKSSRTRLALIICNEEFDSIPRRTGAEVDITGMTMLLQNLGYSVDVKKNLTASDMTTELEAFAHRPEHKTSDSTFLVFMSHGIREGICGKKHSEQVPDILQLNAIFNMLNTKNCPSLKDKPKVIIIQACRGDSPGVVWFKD
T1 sequence (P29466 317-404 limits assumed): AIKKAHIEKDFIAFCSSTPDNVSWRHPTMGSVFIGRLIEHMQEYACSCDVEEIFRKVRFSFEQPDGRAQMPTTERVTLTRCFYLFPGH
Kind of series: Caspase inhibition assay, AcYVAD-AFC substrate. The class given is biochemical. The procedure:
(§1) The determination of the IC50/μm was performed according to Gary Johnson, 9401 James Avenue, Suite No. 155, Bloomington, Minn. 55431.
(§2) Caspase Inhibition Assay:—Caspases are diluted in caspase buffer, 0.1 M HEPES, 10% sucrose 0.1% CHAPS and 10 mM DTT, pH 7.5. Caspases 1, 3, and 8 are used at a concentration of 144 U/well and caspase 9 is used at 4.8 U/well in a 96 well fluorometric plate.
(§3) Inhibitors are initially dissolved in DMSO at 10 mg/ml and further dilutions can be prepared in caspase buffer. The inhibitors are generally tested at concentrations ranging from 50 uM to 0.005 uM. These are usually prepared as 2 fold or 2.5 fold decreasing dilutions. The enzyme approximately 144 U in 120 ul caspase buffer is added to 380 ul caspase buffer containing the appropriate concentration on the inhibitor and incubated on ice for 15 min. The reactants 200 ul are then added to a black fluorimetric plate and incubated in the fluorometer at 37° C. for 30 min.
(§4) During the incubation period appropriate coumarin substrates are prepared by dilution in DMSO and caspase buffer to provide a 0.417 mM working stock. AcYVAD-AFC is used for caspase 1, AcDEVD-AFC for caspase 3. AcIETD-AFC for caspase 8 and Ac-LEHD-AFC for capsase 9. Twenty five microliters of the stock solution are added to 200 ul of the caspase and inhibitor test solutions to give a final substrate concentration of 0.046 mM.
(§5) The fluorometer is set to 400 nm excitation and 505 nm emission. The enzyme-inhibitor-substrate is allowed to incubate at for an additional twenty min. and the response is read as fluorescence units vs inhibitor concentration. The responses are plotted as percent of the maximum response (response in the absence of inhibitor) for each concentration of the inhibitor. The inhibitory activity for each inhibitor is described as the concentration of inhibitor that produces a 50% inhibition of the maximum response (IC50).

The target in series [4] is T2, caspase 3 (Homo sapiens, UniProt P42574).
T2 sequence (P42574 29-175 limits assumed): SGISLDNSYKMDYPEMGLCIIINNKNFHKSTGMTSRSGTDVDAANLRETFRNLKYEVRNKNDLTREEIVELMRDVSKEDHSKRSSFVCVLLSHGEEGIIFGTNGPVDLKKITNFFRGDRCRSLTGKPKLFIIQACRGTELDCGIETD
T2 sequence (P42574 176-277 limits assumed): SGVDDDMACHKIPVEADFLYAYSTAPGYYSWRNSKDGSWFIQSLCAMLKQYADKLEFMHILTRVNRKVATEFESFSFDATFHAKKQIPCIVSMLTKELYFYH
Kind of series: Caspase inhibition assay, AcDEVD-AFC substrate. The class given is biochemical. How it is done:
as §1, §2, §3, §4, §5

Series [5] has as its target caspase 8 (Homo sapiens, UniProt Q14790). Kind of series: Caspase inhibition assay, AcIETD-AFC substrate. The class given is biochemical. How it is done: as §1, §2, §3
During the incubation period appropriate coumarin substrates are prepared by dilution in DMSO and caspase buffer to provide a 0.417 mM working stock. AcYVAD-AFC is used for caspase 1, AcDEVD-AFC for caspase 3. […]
The fluorometer is set to 400 nm excitation and 505 nm emission. The enzyme-inhibitor-substrate is allowed to incubate at for an additional twenty min. and the response is read as fluorescence units vs inhibitor concentration. […]

The target of series [6] is T3, caspase 9 (Homo sapiens, UniProt P55211).
T3 sequence (P55211 1-315 limits assumed): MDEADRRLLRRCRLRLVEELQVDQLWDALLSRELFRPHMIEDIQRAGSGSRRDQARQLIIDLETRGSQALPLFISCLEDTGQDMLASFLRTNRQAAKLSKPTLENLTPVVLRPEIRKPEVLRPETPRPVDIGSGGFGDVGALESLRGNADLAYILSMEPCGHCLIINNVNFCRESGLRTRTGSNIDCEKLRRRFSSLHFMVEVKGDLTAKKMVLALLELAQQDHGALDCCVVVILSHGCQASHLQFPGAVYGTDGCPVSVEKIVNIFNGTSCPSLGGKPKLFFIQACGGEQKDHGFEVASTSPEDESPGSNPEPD
T3 sequence (P55211 331-416 limits assumed): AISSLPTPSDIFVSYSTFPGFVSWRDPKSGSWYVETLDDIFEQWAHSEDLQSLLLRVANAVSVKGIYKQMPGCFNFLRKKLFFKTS
Kind of series: Caspase inhibition assay, Ac-LEHD-AFC substrate. The class given is biochemical. The procedure:
as §1, §2, §3, §4, §5

Where [7] appears, read: from figure, antilog of log concentration, read-out: IC50 caspase 1.
Where [8] appears, read: from figure, antilog of log concentration, read-out: IC50 caspase 3.
Setting [9] is: esterase treated inhibitor, read-out: IC50 caspase 1.

caspase 8, sequence (Q14790 217-374 limits assumed, species assumed): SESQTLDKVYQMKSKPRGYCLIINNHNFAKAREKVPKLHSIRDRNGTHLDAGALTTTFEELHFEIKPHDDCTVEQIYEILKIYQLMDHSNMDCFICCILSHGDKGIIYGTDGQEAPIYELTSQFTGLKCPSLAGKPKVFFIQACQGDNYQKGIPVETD
caspase 8, sequence (Q14790 385-479 limits assumed, species assumed): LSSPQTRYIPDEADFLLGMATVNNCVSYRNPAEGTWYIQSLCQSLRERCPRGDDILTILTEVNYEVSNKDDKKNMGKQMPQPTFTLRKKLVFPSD

Take `COC(=O)CC(NC(=O)C(CC(C)C)NC(=O)c1ccc2ccccc2n1)C(=O)COc1ccccc1` (centres unmarked) [Inhibitor J^1, Q-Leu-Asp(OMe)—CH2—OPh]: the “% non-viable cells” value in series [1] (1 μM inhibitor + ActD, WEHI 231, lower = greater inhibitory activity) was 88%; in series [1] (10 μM inhibitor + ActD, WEHI 231) it was 16%; in series [1] (20 μM inhibitor + ActD, WEHI 231) it was 3%; in series [1] (30 μM inhibitor + ActD, WEHI 231) it was 2%; in series [1] (40 μM inhibitor + ActD, WEHI 231), 2%; in series [1] (50 μM inhibitor + ActD, WEHI 231) it was 2%. Further, the “% non-viable cells” value in series [1] (100 μM inhibitor + ActD, WEHI 231) came to 3%. Besides, the “efficacy in TUNEL test, in words” value in series [1] (10 sequences in a blind test) was “most efficacious”. In addition, the entries for the “rank of result in TUNEL analysis” value in series [1] (Table 3 markers) and in series [1] (markers in structure designation table) were “J^1**” and “Q-Leu-Asp(OMe)—CH2—OPh**”, respectively. Also, the “effective concentration in TUNEL test” value in series [1] (blind test by TUNEL method, conclusions) is 10 µM. The “% non-viable cells, inhibitor alone” value in series [2] (20 μM Inh alone) and in series [2] (100 μM Inh alone) was 1% each time. The IC50 (in general, the concentration that inhibits the measured activity by half) in series [3] (setting [7]) was roughly 940 nM.

With `COC(=O)CC(NC(=O)C(NC(=O)c1ccc2ccccc2n1)C(C)C)C(=O)COc1cc(N)ccc1C(=O)O` (stereo not drawn) [Q-VD(OMe)-ASA, Quinoline-(2-Carbonyl)-Val-Asp(OMe)-α-(2-oxy-Amino Salicylic Acid)], the IC50 in series [3] (Table 5, read-out: CASP-1 IC50) is 1500 nM; in series [3] (setting [7]) it was roughly 1460 nM; in series [4] (Table 5, read-out: CASP-3 IC50), 1240 nM; in series [4] (setting [8]), ~1230 nM and ~980 nM; in series [5] (Table 5, read-out: CASP-8 IC50) it was 5880 nM; in series [5] (from figure, read-out: IC50 caspase 8) it was roughly 5820 nM. The compound also came in with a 50% inhibitory concentration (IC50) in series [6] (from figure, antilog of log concentration) of roughly 5440 nM.

For the compound `COC(=O)CC(NC(=O)C(NC(=O)c1ccc2ccccc2n1)C(C)C)C(=O)COc1ccc(CCNC(=O)OC(C)(C)C)cc1O` (centres unmarked) [Q-VD(OMe)-DOPA-BOC], the IC50 in series [4] (Table 5, read-out: CASP-3 IC50) is less than 25000 nM.

As for `COC(=O)CC(NC(=O)C(NC(=O)c1ccc2ccccc2n1)C(C)C)C(=O)COc1ccccc1C(=O)O` (centres unmarked) [Q-VD(OMe)-SA, Quinoline-(2-Carbonyl)-Val-Asp(OMe)—CH—O-Salicylic Acid], the IC50 is 1430 nM in series [3] (Table 5, read-out: CASP-1 IC50); roughly 1430 nM in series [3] (setting [7]); 500 nM in series [4] (Table 5, read-out: CASP-3 IC50).

For `COC(=O)C[C@H](NC(=O)[C@@H](NC(=O)c1ccc2ccccc2n1)C(C)C)C(=O)COC1=C(c2ccccc2)C(=O)OC1` [Q-VD(OMe)-Tetronic Acid, Quinoline-(2-Carbonyl)-Val-Asp(OMe)—CH2-2-Phenyltetronic Acid], the IC50 in series [4] (Table 5, read-out: CASP-3 IC50) came to 250 nM.

For `COC(=O)C[C@H](NC(=O)[C@H](C)NC(=O)[C@@H](NC(=O)c1ccc2ccccc2n1)C(C)C)C(=O)CF` [QVAD(OMe)FMK, Quinoline-(C═O)Val-Ala-Asp(OMe)-Fluoromethyl Ketone], the “concentration vs. >90% cell survival” value was 100 µM.

Regarding `COC(=O)CC(NC(=O)C(CC(C)C)NC(=O)c1ccc2ccccc2n1)C(=O)CF` [quinoline-(2-carbonyl)-L-D(OMe)—CH2-FMK], the IC50 is roughly 39.8 nM in series [3] (setting [9]); roughly 31 nM in series [4] (esterase treated inhibitor, read-out: IC50 caspase 3); 45 nM in series [4] (non-esterase treated inhibitor, read-out: IC50 caspase 3); roughly 70 nM in series [6] (esterase treated inhibitor); roughly 65 nM in series [6] (non-esterase treated inhibitor).

As for `CC(C)C[C@H](NC(=O)c1ccc2ccccc2n1)C(=O)N[C@@H](CC(=O)O)C(=O)COc1ccccc1` [quinoline-(2-carbonyl)-L-D-CH2—OPh], the IC50 in series [3] (setting [7]) is roughly 548 nM; in series [4] (setting [8]) it was roughly 50 nM.

In the case of `COC(=O)CC(NC(=O)C(NC(=O)c1ccc2ccccc2n1)C(C)C)C(=O)CF` [quinoline-(2-carbonyl)-V-D(OMe)—CH2-FMK, Quinoline-(2-Carbonyl)-V-D-(OMe)-α-CH2F (the Fluoromethyl Ketone)], the IC50 in series [3] (setting [9]) is roughly 68 nM; in series [6] (esterase treated inhibitor), 25 nM; in series [6] (non-esterase treated inhibitor), roughly 29 nM.

As to “Quinoline-(2-Carbonyl)-Val-Asp(OMe)-α-(3-oxy-Dopamine) [Q-VD(OMe)-DOPA.TFA]”, the half-inhibitory concentration (IC50) in series [4] (Table 5, read-out: CASP-3 IC50) was 2000 nM.

Regarding hydroxy Trp-TTP-V-D(OMe)—CH2—O—Ph, the IC50 in series [3] (setting [7]) was roughly 115 nM.

With hydroxy quinoline-(2-carbonyl)-VD-OPh, in series [3] (setting [7]), the half-inhibitory concentration (IC50) is roughly 38 nM.

With indole-(2-carbonyl)-3-V-D(OMe)—CH2—O—Ph, in series [3] (setting [7]), the IC50 is roughly 460 nM.
